In patent US11879145B2, “Reagents and methods for replication, transcription, and translation in semi-synthetic organisms” (The Scripps Research Institute, priority 2019, dated 2024):
Values joined by “and” are separate entries in the source; they are usually repeats but may differ in a detail not shown here. Equal values may be shown once. “Also recorded” adds a separate entry of the source.

Legend:
E. coli strain YZ3 = experiment: Cell growth / viability in the in vivo screen of dXTPs; format: cell-based; conditions: dXTP 5 μM
Method: These plasmids were used to transform E. coli expressing the nucleoside triphosphate transporter PtNTT2 (strain YZ38) and harboring a plasmid encoding Mb PylRS. After transformation, colonies were selected and grown to an OD600˜1.0 in liquid media supplemented with dTPT3TP (10 μM) and one of seven different dXTPs (FIG. 2) added at varying concentrations (150 μM, 10 μM, or 5 μM). Cells were then diluted into fresh expression media containing the same unnatural deoxyribonucleotides as well as NaMTP (250 μM), TPT3TP (30 μM), and AzK (10 mM). After a brief incubation, T7 RNAP and tRNAPyl(GYT) expression was induced by the addition of isopropyl-β-d-thiogalactoside (IPTG, 1 mM). […]
Analysis of reporter protein production. To characterize the amount of protein produced, bulk culture fluorescence normalized to cell growth was measured 2.5 h after the induction of protein expression (FIG. 3C). […] While similar at high concentrations, at lower concentrations the use of each dXTP analog results in a greater AzK-dependent increase in fluorescence than does the use of dNaMTP.
Ten-fold dilutions of the glycerol stock were re-plated onto solid growth media supplemented with dNaMTP (150 μM), dTPT3TP (10 μM), and 2% w/v agar, then grown at 37° C. overnight. […] From this point on, cells were monitored for growth and fluorescence. […]

sfGFP^151(AXC) [1] = experiment: Fidelity of AzK incorporation into sfGFP, DBCO-TAMRA gel shift / western blot (in vivo screen of dXTPs); format: cell-based, E. coli
Method: Analysis of reporter protein fidelity. To directly assess the fidelity of unnatural protein production, cells were harvested 2.5 h after the induction of protein expression and the sfGFP produced was purified and subjected to a strain-promoted azide-alkyne cycloaddition reaction with dibenzocyclooctyne (DBCO) linked to a TAMRA dye by four PEG units. In addition to tagging the proteins containing the ncAA with a detectable fluorophore, conjugation produces a shift in electrophoretic migration, allowing quantification of protein containing AzK as a percentage of the total protein produced (i.e. fidelity of ncAA incorporation; FIG. 3D).
Ten-fold dilutions of the glycerol stock were re-plated onto solid growth media supplemented with dNaMTP (150 μM), dTPT3TP (10 μM), and 2% w/v agar, then grown at 37° C. overnight. Single colonies were picked and grown in growth media (300 μL) supplemented with corresponding dXTP (various concentrations), and dTPT3TP (10 μM), then monitored for cell growth and collected at an OD600˜1.0. Once all samples were collected, samples were left on ice overnight. The samples were then re-diluted to OD600˜0.1, to a final volume of 300 μL and provided with the corresponding dXTP (various concentrations), and dTPT3TP (10 μM). The remaining culture not used was pelleted and stored at −80° C. for subsequent plasmid isolation using the ZR Plasmid Prep Kit (Zymo Research) to determine UBP retention. When cultures reached an OD600˜0.4-0.6, they were provided with NaMTP (250 μM) and TPT3TP (30 μM), and AzK (10 mM) (or ddH2O for cultures grown in the absence of AzK). Samples were shielded from light after addition of AzK to prevent photodegradation. These samples were then grown at 37° C. for 20 min before adding 1 mM IPTG and grown at 37° C. for an additional 1 h to induce T7 RNAP and transcription of tRNAPyl and PylRS. From this point on, cells were monitored for growth and fluorescence. Expression of sfGFP was then induced with anhydrotetracycline (100 ng/mL).
Affinity Purification of sfGFP. Cell pellets collected from translation experiments were resuspended in BugBuster (100 μL 1×, EMD Millipore) and shaken at room temperature for 15 min. The cell lysate was then diluted with Buffer W (380 μL; 50 mM HEPES pH 8, 150 mM NaCl, 1 mM EDTA) and magnetic Strep-Tactin beads (20 μL, 5% (v/v) suspension of MagStrep ‘type3’ XT beads, IBA Lifesciences) equilibrated in Buffer W, were added. The mixture was gently inverted at 4° C. for 30 min. […] Purified proteins were quantified using the Qubit Protein Assay Kit (Thermo Fisher Scientific). […]

sfGFP^151(AXC) gene = experiment: UBP retention in the sfGFP gene by streptavidin gel shift assay (in vivo screen of dXTPs); format: cell-based, E. coli; conditions: dTPT3TP 10 μM, strain YZ3
Method: (§1) These plasmids were used to transform E. coli expressing the nucleoside triphosphate transporter PtNTT2 (strain YZ38) and harboring a plasmid encoding Mb PylRS. After transformation, colonies were selected and grown to an OD600˜1.0 in liquid media supplemented with dTPT3TP (10 μM) and one of seven different dXTPs (FIG. 2) added at varying concentrations (150 μM, 10 μM, or 5 μM). Cells were then diluted into fresh expression media containing the same unnatural deoxyribonucleotides as well as NaMTP (250 μM), TPT3TP (30 μM), and AzK (10 mM). After a brief incubation, T7 RNAP and tRNAPyl(GYT) expression was induced by the addition of isopropyl-β-d-thiogalactoside (IPTG, 1 mM). After an additional 1 h of incubation, the expression of sfGFP^151(AXC) was initiated by the addition of anhydrotetracycline (aTc, 100 ng/mL).
(§2) Analysis of PCR products. After 2.5 h, plasmids were isolated and then the genes of interest were independently PCR amplified using d5SICSTP and a biotinylated analog of dNaMTP7. The resulting PCR product was analyzed via a gel mobility shift assay using streptavidin to quantify the UBP retained as a percent shift of the total amplified product (hereafter referred to as the streptavidin gel shift assay) (FIG. 3A and FIG. 3B).
In vivo Translation Screen of dXTPs. An overnight culture of the SSO strain YZ3 carrying the pGEX-MbPylRS TetR plasmid was grown in 2×YT supplemented with 50 mM potassium phosphate, […] chloramphenicol and 100 μg/mL carbenicillin (herein referred to in this section as “media”), then diluted back to an OD600 of 0.03 in the same media and grown to an OD600 of 0.4 to 0.6. The culture was then chilled with shaking over ice-water for 15 minutes then pelleted by centrifugation at 3,200×g for 10 min. Cells were then resuspended and washed with ice-cold ddH2O twice then resuspended in ice-cold ddH2O to an OD600 of 55-65. The electrocompetent cells (50 μL) and 1 ng of Golden Gate assembled plasmid with the UBP within the sfGFP and tRNAPyl genes (see Golden Gate Assembly of Plasmids) were transferred to a pre-chilled electroporation cuvette (0.2-cm-gap), then electroporated (Gene Pulser II; Bio-Rad) according to manufacturer's recommendations (voltage […], capacitor 2.5 μF, resistor 200Ω), and then immediately diluted with 950 μL of media. An aliquot (40 μL) of the transformation was then diluted five-fold in media supplemented with dNaMTP (150 μM) and dTPT3TP (10 μM) for a final volume of 200 μL then allowed to recover for 1 h shaking at 37° C. […] The culture was monitored for cell growth (Envision 2103 Multilabel Plate Reader with a 590/20 nm filter) and then collected at an OD600˜1.0. […]

tRNA^Pyl(GYT) gene = experiment: UBP retention in the tRNA gene by streptavidin gel shift assay (in vivo screen of dXTPs); format: cell-based, E. coli; conditions: dTPT3TP 10 μM, strain YZ3
Method: as §1, §2
In vivo Translation Screen of dXTPs. An overnight culture of the SSO strain YZ3 carrying the pGEX-MbPylRS TetR plasmid was grown in 2×YT supplemented with 50 mM potassium phosphate, […] chloramphenicol and 100 μg/mL carbenicillin (herein referred to in this section as “media”), then diluted back to an OD600 of 0.03 in the same media and grown to an OD600 of 0.4 to 0.6. The culture was then chilled with shaking over ice-water for 15 minutes then pelleted by centrifugation at 3,200×g for 10 min. Cells were then resuspended and washed with ice-cold ddH2O twice then resuspended in ice-cold ddH2O to an OD600 of 55-65. […] The culture was monitored for cell growth (Envision 2103 Multilabel Plate Reader with a 590/20 nm filter) and then collected at an OD600˜1.0. […]

sfGFP^151(AXC) [2] = experiment: Bulk culture sfGFP fluorescence normalized to cell growth (in vivo screen of dXTPs); format: cell-based, E. coli; conditions: for sfGFP fluorescence normalized to cell growth: AzK added
Method: as §1
Analysis of reporter protein production. To characterize the amount of protein produced, bulk culture fluorescence normalized to cell growth was measured 2.5 h after the induction of protein expression (FIG. 3C). […] Cells growth was not observed when provided with only 5 μM dNaMTP. While similar at high concentrations, at lower concentrations the use of each dXTP analog results in a greater AzK-dependent increase in fluorescence than does the use of dNaMTP.
Ten-fold dilutions of the glycerol stock were re-plated onto solid growth media supplemented with dNaMTP (150 μM), dTPT3TP (10 μM), and 2% w/v agar, then grown at 37° C. overnight. Single colonies were picked and grown in growth media (300 μL) supplemented with corresponding dXTP (various concentrations), and dTPT3TP (10 μM), then monitored for cell growth and collected at an OD600˜1.0. Once all samples were collected, samples were left on ice overnight. The samples were then re-diluted to OD600˜0.1, to a final volume of 300 μL and provided with the corresponding dXTP (various concentrations), and dTPT3TP (10 μM). […] From this point on, cells were monitored for growth and fluorescence. […]

[3] = dXTP 5 μM (lowest concentration)

COc1cc2ccccc2cc1[C@H]1C[C@H](O)[C@@H](COP(=O)(O)OP(=O)(O)OP(=O)(O)O)O1 [dNaMTP]
Cell growth / survival (E. coli strain YZ3): not observed; also recorded: did not survive
Fidelity of ncAA incorporation (protein shift) (sfGFP^151(AXC) [1]; dXTP 10 μM): dropped precipitously
UBP retention in the sfGFP^151(AXC) gene (sfGFP^151(AXC) gene; dXTP 10 μM): 73%
UBP retention in the sfGFP^151(AXC) gene (sfGFP^151(AXC) gene; dXTP 150 μM): 99%
UBP retention in the tRNA^Pyl(GYT) gene (tRNA^Pyl(GYT) gene; dXTP 10 μM): 71%
sfGFP fluorescence normalized to cell growth (sfGFP^151(AXC) [2]; dXTP 150 or 10 μM): significantly less fluorescence at 10 μM than at 150 μM

COc1cc(C)c(F)cc1[C@H]1C[C@H](O)[C@@H](COP(=O)(O)OP(=O)(O)OP(=O)(O)O)O1 [d5FMTP]
Fidelity of ncAA incorporation (protein shift) (sfGFP^151(AXC) [1]; dXTP 5 μM): remained similar to that observed at 10 μM
Fidelity of ncAA incorporation (protein shift) (sfGFP^151(AXC) [1]; dXTP 10 μM): remained high
Quantity of pure unnatural protein produced (sfGFP^151(AXC) [1]; especially at lower concentrations): greatest quantity of pure unnatural protein
UBP retention in the sfGFP^151(AXC) gene (sfGFP^151(AXC) gene; [3]): 94% and ~93%
UBP retention in the sfGFP^151(AXC) gene (sfGFP^151(AXC) gene; dXTP 10 μM): 96%
UBP retention in the tRNA^Pyl(GYT) gene (tRNA^Pyl(GYT) gene; [3]): 83%
UBP retention in the tRNA^Pyl(GYT) gene (tRNA^Pyl(GYT) gene; dXTP 10 μM): 82%
sfGFP fluorescence normalized to cell growth (sfGFP^151(AXC) [2]; dXTP 5 μM): remained the same
AzK-dependent increase in fluorescence (sfGFP^151(AXC) [2]; lower dXTP concentrations, compared with dNaMTP): largest AzK-dependent increase in fluorescence
